Like-named read-outs stand apart in the source and are kept apart here.
What was measured:
HCT-116 = assay: Cytotoxicity assay (SRB), HCT-116; type: cell-based; conditions: Homo sapiens, HCT-116, 72 h, HCT116 cells, SRB, read-out: In Vitro Cellular Activity IC50 HCT116
In short: (§1)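 BT474 (12000 cells/well) was treated for 6 days, whereas HCT-116 (4000), LoVo (6000) and MCF-7 (6000) were treated for 3 days, all in RPMI 1640 containing 5% FBS. Surviving-cell percentage came from SRB dye binding measured at 540 nm.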

cyclin B/CDK1 enzyme = target: T1, cyclin B/CDK1 enzyme (Homo sapiens, UniProt P06493); assay: CDK1 ELISA kinase assay (phospho-Rb ser 795 detection); type: biochemical
T1 construct: purchased New England BioLabs; host or cells: Sf9 insect cells, recombinant baculovirus
T1 sequence (P06493 whole entry): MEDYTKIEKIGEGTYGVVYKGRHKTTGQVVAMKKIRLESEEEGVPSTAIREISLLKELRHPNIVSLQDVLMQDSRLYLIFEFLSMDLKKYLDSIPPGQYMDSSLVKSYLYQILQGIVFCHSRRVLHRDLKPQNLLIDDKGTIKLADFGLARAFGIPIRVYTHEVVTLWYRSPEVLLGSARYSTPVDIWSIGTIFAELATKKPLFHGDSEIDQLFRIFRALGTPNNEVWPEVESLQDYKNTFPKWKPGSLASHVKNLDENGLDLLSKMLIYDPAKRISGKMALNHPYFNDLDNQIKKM
T1 sequence (P14635 whole entry partner): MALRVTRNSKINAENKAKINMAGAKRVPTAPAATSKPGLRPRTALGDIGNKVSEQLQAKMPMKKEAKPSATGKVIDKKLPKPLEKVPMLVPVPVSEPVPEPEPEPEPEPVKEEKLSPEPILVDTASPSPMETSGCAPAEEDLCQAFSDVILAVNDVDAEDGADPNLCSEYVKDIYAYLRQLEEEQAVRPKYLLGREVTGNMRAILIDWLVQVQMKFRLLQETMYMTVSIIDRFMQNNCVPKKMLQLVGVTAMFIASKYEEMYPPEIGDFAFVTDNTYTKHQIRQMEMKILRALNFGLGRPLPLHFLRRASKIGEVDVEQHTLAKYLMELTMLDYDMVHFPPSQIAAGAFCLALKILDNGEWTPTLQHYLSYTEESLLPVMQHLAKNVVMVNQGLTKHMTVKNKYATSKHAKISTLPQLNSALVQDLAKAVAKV
In short: (§2)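 Inhibition was derived from A450 relative to control wells lacking compound, following an anti-phospho-Rb Ser795 sandwich of HRP detection. The reactions combined coated GST-Rb fragment, 200 μM ATP and baculovirus-expressed cyclin/CDK enzymes, incubated for 1 h at 30° C.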

BT474 = assay: Cytotoxicity assay (SRB), BT474; type: cell-based
In short: as §1

MCF-7 = assay: Cytotoxicity assay (SRB), MCF-7; type: cell-based; conditions: Homo sapiens, MCF7, 72 h, MCF-7 cells, SRB, read-out: In Vitro Cellular Activity IC50 MCF-7
In short: as §1

cyclin D1/cdk 4 enzyme = target: T2, cyclin D1/cdk 4 enzyme (Homo sapiens, UniProt P11802); assay: CDK4 ELISA kinase assay (phospho-Rb ser 795 detection); type: biochemical
T2 construct: made in house; host or cells: Sf9 insect cells, recombinant baculovirus
T2 sequence (P11802 whole entry, species assumed): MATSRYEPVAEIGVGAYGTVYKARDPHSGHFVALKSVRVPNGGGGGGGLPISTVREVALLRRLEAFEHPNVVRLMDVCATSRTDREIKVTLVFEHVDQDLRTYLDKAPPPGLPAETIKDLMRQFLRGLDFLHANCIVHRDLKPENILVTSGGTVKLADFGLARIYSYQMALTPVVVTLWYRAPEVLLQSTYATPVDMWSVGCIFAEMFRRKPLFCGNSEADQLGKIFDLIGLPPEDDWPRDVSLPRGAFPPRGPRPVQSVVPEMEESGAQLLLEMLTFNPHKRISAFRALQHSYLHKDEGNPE
T2 sequence (P24385 whole entry partner, species assumed): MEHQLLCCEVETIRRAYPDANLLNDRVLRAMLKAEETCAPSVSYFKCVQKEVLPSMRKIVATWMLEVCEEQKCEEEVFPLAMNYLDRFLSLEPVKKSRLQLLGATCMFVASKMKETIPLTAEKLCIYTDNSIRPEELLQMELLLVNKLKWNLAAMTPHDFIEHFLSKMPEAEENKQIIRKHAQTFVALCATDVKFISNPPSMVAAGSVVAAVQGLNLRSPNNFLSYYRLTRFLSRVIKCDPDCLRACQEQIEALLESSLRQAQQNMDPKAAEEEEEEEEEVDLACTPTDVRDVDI
In short: as §2

cyclin E/CDK2 enzyme = target: T3, cyclin E/CDK2 enzyme (Homo sapiens, UniProt P24941); assay: CDK2 ELISA kinase assay (phospho-Rb ser 795 detection); type: biochemical
T3 construct: made in house; host or cells: Sf9 insect cells, recombinant baculovirus
In short: as §2

LoVo = assay: Cytotoxicity assay (SRB), LoVo; type: cell-based; conditions: Homo sapiens, LoVo, 72 h, LoVo cells, SRB, read-out: In Vitro Cellular Activity IC50 LOVO
In short: as §1

[1] = In Vitro Enzyme Assays, read-out: CDK1 IC50
[2] = Homo sapiens, BT-474, 144 h, BT474 cells, SRB, 6 days; read-out: In Vitro Cellular Activity IC50 BT474
[3] = In Vitro Enzyme Assays, 200 μM ATP, read-out: CDK4 IC50
[4] = In Vitro Enzyme Assays, read-out: CDK2 IC50
[5] = In Vitro Enzyme Assay, cyclin B/CDK1, read-out: CDK1 IC50
[6] = Homo sapiens, BT-474, 144 h, BT474 cells, 6 days, SRB; read-out: In Vitro Cellular Activity IC50 BT474
[7] = In Vitro Enzyme Assay, cyclin D1/cdk 4, read-out: CDK4 IC50
[8] = In Vitro Enzyme Assay, cyclin E/CDK2, read-out: CDK2 IC50

Row | SMILES | IC50 (cyclin B/CDK1 enzyme; [1]) | melting point | IC50 (cyclin D1/cdk 4 enzyme; [3]) | IC50 (cyclin E/CDK2 enzyme; [4]) | IC50 (cyclin B/CDK1 enzyme; [5]) | IC50 (cyclin D1/cdk 4 enzyme; [7]) | IC50 (cyclin E/CDK2 enzyme; [8]) | IC50 (HCT-116; three days) | IC50 (BT474; [2]) | IC50 (MCF-7; three days) | IC50 (LoVo; three days) | IC50 (HCT-116; 3 days) | IC50 (BT474; [6]) | IC50 (MCF-7; 3 days) | IC50 (LoVo; 3 days)
1 | CC(=O)Oc1ccc(CN/C=C2\C(=O)NC(=O)c3ccc(Br)cc32)cc1OC(C)=O [Example 54, 2-(Acetyloxy)-4-({[(Z)-(6-bromo-1,3-dioxo-2,3-dihydroisoquinolin-4(1H)-ylidene)methyl]-amino}methyl)phenyl acetate] | > 50 µM | 239 to 240 °C | 160 nM | > 50 µM |  |  |  | 6.4 µM | 6.5 µM | 9.2 µM | 5.9 µM |  |  |  | 
2 | O=C1NC(=O)c2ccc(I)cc2/C1=C/Nc1ccc(Cn2ccnc2)cc1 [Example 273, (4Z)-4-({[4-(1H-Imidazol-1-ylmethyl)phenyl]amino}methylene)-6-iodoisoquinoline-1,3(2H,4H)-dione] | > 50 µM | 275 to 276 °C | 24700 nM | 12.3 µM |  |  |  | 3 µM | 7.5 µM | 13 µM | 7.9 µM |  |  |  | 
3 | O=C1NC(=O)c2ccc(Br)cc2/C1=C/NCc1cc(O)cc(O)c1 [Example 64] | 16.5 µM | 318 to 319 °C | 15 nM | 0.62 µM |  |  |  | > 50 µM | 28 µM | > 50 µM | > 50 µM |  |  |  | 
4 | COc1ccc(CN/C=C2\C(=O)NC(=O)c3ccc(NS(=O)(=O)c4ccccc4)cc32)cc1O [Example 196, N-((4Z)-4-{[(3-Hydroxy-4-methoxybenzyl)amino]methylene}-1,3-dioxo-1,2,3,4-′tetrahydroisoquinolin-6-yl)benzenesulfonamide] | > 50 µM | 245 to 246 °C | 1100 nM | 40.6 µM |  |  |  | 35 µM | 37 µM | 38 µM | 37 µM |  |  |  | 
5 | O=C1NCc2ccccc2C1=CNc1ccc(CCN2CCCC2)cc1 [Example 170, 4-{[4-(2-Pyrrolidin-1-yl-ethyl)-phenylamino]-methylene}-1,4-dihydro-2H-isoquinolin-3-one] | > 50 µM | 169 to 173 °C (dec.) | 46500 nM | > 50 µM |  |  |  | 6.2 µM | 27 µM | 11 µM | 21 µM |  |  |  | 
6 | O=C1NC(=O)c2ccc(-c3ccsc3)cc2C1=NNc1ccc(CN2CCCCC2)cc1 [Example 152, 4-[(4-Piperidin-1-ylmethyl-phenyl)-hydrazono]-6-thiophen-3-yl-4H-isoquinoline-1,3-dione] | 36.3 µM | 164 to 168 °C (dec.) | 60 nM | > 50 µM |  |  |  | 2.8 µM | 3.4 µM | 6.2 µM | 6.6 µM |  |  |  | 
7 | COc1ccc(C#Cc2ccc3c(c2)/C(=C/Nc2ccc(N4CCN(C)CC4)cc2)C(=O)NC3=O)cc1 [Example 172, (4Z)-6-[(4-Methoxyphenyl)ethynyl]-4-({[4-(4-methylpiperazin-1-yl)phenyl]amino}-methylene)isoquinoline-1,3(2H,4H)-dione] | 23.6 µM | 155 to 156 °C | 23600 nM | > 50 µM |  |  |  | 8.7 µM | 17 µM | > 50 µM | > 50 µM |  |  |  | 
8 | CC(C)Oc1ccc(CN/C=C2\C(=O)NC(=O)c3ccc(Br)cc32)cc1O [Example 137, (4Z)-6-Bromo-4-{[(3-hydroxy-4-isopropoxybenzyl)amino]methylene}isoquinoline-1,3(2H,4H)-dione] | > 50 µM | 212 to 213 °C | 690 nM | 33.9 µM |  |  |  | 4.4 µM | 3.3 µM | 17 µM | 5.8 µM |  |  |  | 
9 | CC(=O)Nc1ccc(CN/C=C2\C(=O)NC(=O)c3ccc(I)cc32)cc1OC(C)=O [Example 146, 2-(Acetylamino)-5-({[(Z)-(6-iodo-1,3-dioxo-2,3-dihydroisoquinolin-4(1H)-′ylidene)methyl]amino}methyl)phenyl acetate] | > 50 µM | 264 to 265 °C | 100 nM | 8.6 µM |  |  |  | 0.66 µM | 0.49 µM | 2.7 µM | 0.86 µM |  |  |  | 
10 | COc1coc(CNC=C2C(=O)NC(=O)c3ccc(Br)cc32)cc1=O [Example 316, 6-Bromo-4-{[(5-methoxy-4-oxo-4H-pyran-2-ylmethyl)-amino]-methylene}-4H-isoquinoline-1,3-dione] | > 50 µM | 259 to 261 °C (dec.) | 1300 nM | 16.9 µM |  |  |  | 8.9 µM | 4.9 µM | 9 µM | 5.7 µM |  |  |  | 
11 | COc1cc(CN/C=C2\C(=O)NC(=O)c3ccc(Br)cc32)cc(OC(C)=O)c1OC [Example 77, 5-({[(Z)-(6-Bromo-1,3-dioxo-2,3-dihydroisoquinolin-4(1H)-ylidene)methyl]amino}methyl)-2,3-dimethoxyphenyl acetate] | > 50 µM | 244 to 245 °C | 380 nM | > 50 µM |  |  |  | 4.8 µM | 7.7 µM | 14.4 µM | 8.4 µM |  |  |  | 

Further lines, with some results ahead:

Row | IC50 (cyclin B/CDK1 enzyme; [1]) | melting point | IC50 (cyclin D1/cdk 4 enzyme; [3]) | IC50 (cyclin E/CDK2 enzyme; [4]) | IC50 (cyclin B/CDK1 enzyme; [5]) | IC50 (cyclin D1/cdk 4 enzyme; [7]) | IC50 (cyclin E/CDK2 enzyme; [8]) | SMILES | IC50 (HCT-116; three days) | IC50 (BT474; [2]) | IC50 (MCF-7; three days) | IC50 (LoVo; three days) | IC50 (HCT-116; 3 days) | IC50 (BT474; [6]) | IC50 (MCF-7; 3 days) | IC50 (LoVo; 3 days)
12 | > 50 µM | 187 to 188 °C | 13200 nM | 3.1 µM |  |  |  | C[C@@H]1CN(c2c(F)cc(N/C=C3\C(=O)NC(=O)c4ccc(Br)cc43)cc2F)C[C@H](C)N1 [Example 381, (4Z)-6-Bromo-4-[({4-[(3R,5S)-3,5-dimethylpiperazin-1-yl]-3,5-difluorophenyl}amino)-methylene]isoquinoline-1,3(2H,4H)-dione] | 2 µM | 3 µM | 4.3 µM | 3.4 µM |  |  |  | 
13 |  | 278 to 279 °C |  |  | > 50 µM | 430 nM | > 50 µM | CC(C)N1CCN(c2ccc(N/C=C3\C(=O)NC(=O)c4ccc(-c5ccoc5)cc43)nc2)CC1 [Example 488, (4Z)-6-(3-Furyl)-4-({[5-(4-isopropylpiperazin-1-yl)pyridin-2-yl]amino}methylene)isoquinoline-1,3(2H,4H)-dione] |  |  |  |  | 3.16 µM | 0.96 µM | 2.27 µM | 2.41 µM
14 | > 50 µM | 214 to 215 °C | 1600 nM | > 50 µM |  |  |  | O=C1NC(=O)c2ccc(Br)cc2/C1=C/Nc1ccc(N2CCC(N3CCCC3)CC2)nc1 [Example 407, (4Z)-6-Bromo-4-({[6-(4-pyrrolidin-1-ylpiperidin-1-yl)pyridin-3-yl]amino}methylene)isoquinoline-1,3(2H,4H)-dione] |  |  |  |  | 3.8 µM | 10.2 µM | 9.7 µM | 8.5 µM
15 |  | 245 to 246 °C |  |  | 2.7 µM | 2200 nM | 17.6 µM | C[C@@H]1CN(c2ccc(N/C=C3\C(=O)NC(=O)c4ccc(Br)cc43)nc2)C[C@H](C)N1 [Example 469, (4Z)-6-Bromo-4-[({5-[(3R,5S)-3,5-dimethylpiperazin-1-yl]pyridin-2-yl}amino)methylene]isoquinoline-1,3(2H,4H)-dione] |  |  |  |  | 0.8 µM | 2.2 µM | 2.9 µM | 1.2 µM
16 | 31.7 µM | 200 to 201 °C | 90 nM | 49.7 µM |  |  |  | O=C1NC(=O)c2ccc(-c3ccsc3)cc2/C1=C/Nc1ccc(N2CCC(N3CCCC3)CC2)c(F)c1 [Example 406, (4Z)-4-({[3-Fluoro-4-(4-pyrrolidin-1-ylpiperidin-1-yl)phenyl]amino}methylene)-6-thien-3-ylisoquinoline-1,3(2H,4H)-dione] |  |  |  |  | 2.6 µM | 3.9 µM | 3.4 µM | 2.7 µM
17 | > 50 µM | 206 to 207 °C | 770 nM | > 50 µM |  |  |  | CN1CCN(c2ccc(N/C=C3\C(=O)NC(=O)c4ccc(-n5cccc5)cc43)cc2F)CC1 [Example 328, (4Z)-4-({[3-Fluoro-4-(4-methylpiperazin-1-yl)phenyl]amino}methylene)-6-(1H-pyrrol-1-yl)isoquinoline-1,3(2H,4H)-dione] | 2.4 µM | 1.6 µM | 1.9 µM | 8.7 µM |  |  |  | 
